# Results reported in ChEMBL document CHEMBL1201862, “PubChem BioAssay data set” (2004).
#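 Protocol summary: plate cells (96-well), add compound at 5 concentrations, incubate 48 h, interpolate endpoints linearly. GI50 = concentration required for 50% inhibition of growth.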 Calls of active or inactive are those of the source. Rule as the data show it: active = GI50 up to about 1.1 µM and inactive = higher.
# Tests used:
# Assay in all cases: NCI anticancer screen, dose series, 48 h
# [1] = system: SK-OV-3
# [2] = system: NCI-H226
# [3] = system: UACC-62
# [4] = system: A549
# [5] = system: HOP-92
# [6] = system: OVCAR-5
# [7] = system: SK-MEL-2
# [8] = system: LOX IMVI
# [9] = system: NCI/ADR-RES
# [10] = system: SF-295
# [11] = system: BT-549
# [12] = system: U-251
# [13] = system: TK-10
# [14] = system: SNB-75
# [15] = system: HCC 2998
# [16] = system: COLO 205
# [17] = system: RXF 393
# [18] = system: M14
# [19] = system: MDA-MB-231
# [20] = system: SF-539
Compound,GI50 [1],GI50 [2],GI50 [3],GI50 [4],GI50 [5],GI50 [6],GI50 [7],GI50 [8],GI50 [9],GI50 [10],GI50 [11],GI50 [12],GI50 [13],GI50 [14],GI50 [15],GI50 [16],GI50 [17],GI50 [18],GI50 [19],GI50 [20]
CC1=NN(c2nc(N)nc(CCl)n2)C(C)(C)C1,> 56 µM (inactive),38.1 µM (inactive),14.8 µM (inactive),42.6 µM (inactive),17.9 µM (inactive),32 µM (inactive),46.8 µM (inactive),1.78 µM (inactive),14.4 µM (inactive),25.7 µM (inactive),26.7 µM (inactive),25.4 µM (inactive),> 71.6 µM (inactive),24.3 µM (inactive),27.1 µM (inactive),22.9 µM (inactive),> 56.8 µM (inactive),30.7 µM (inactive),29.3 µM (inactive),18.9 µM (inactive)
CC/C(=N/O)c1ccc(Br)s1,> 100 µM (inactive),> 100 µM (inactive),84.1 µM (inactive),> 100 µM (inactive),40.3 µM (inactive),> 100 µM (inactive),> 100 µM (inactive),51.9 µM (inactive),> 100 µM (inactive),> 100 µM (inactive),> 100 µM (inactive),> 100 µM (inactive),> 100 µM (inactive),67.8 µM (inactive),> 100 µM (inactive),> 100 µM (inactive),70.3 µM (inactive),> 100 µM (inactive),> 100 µM (inactive),27.1 µM (inactive)
COc1ccccc1Nc1nc(N)nc(N)c1N,> 100 µM (inactive),> 100 µM (inactive),57.5 µM (inactive),> 100 µM (inactive),> 100 µM (inactive),> 100 µM (inactive),> 100 µM (inactive),20.8 µM (inactive),> 100 µM (inactive),28.6 µM (inactive),> 100 µM (inactive),64.3 µM (inactive),> 100 µM (inactive),> 100 µM (inactive),> 100 µM (inactive),48.2 µM (inactive),> 100 µM (inactive),> 100 µM (inactive),29.4 µM (inactive),50.6 µM (inactive)
CCOC(=O)c1oc2ccc([N+](=O)[O-])c3c2c1CCC3,9.89 µM (inactive),> 88.7 µM (inactive),13.8 µM (inactive),> 100 µM (inactive),17.4 µM (inactive),> 92 µM (inactive),47.1 µM (inactive),66.5 µM (inactive),64.9 µM (inactive),23.9 µM (inactive),46.5 µM (inactive),29.9 µM (inactive),47.6 µM (inactive),14 µM (inactive),> 87.9 µM (inactive),> 85.1 µM (inactive),26 µM (inactive),> 86.3 µM (inactive),36.5 µM (inactive),19 µM (inactive)
COc1cc(C2SCC(=O)N2c2ccc(Cl)c(Cl)c2)cc(OC)c1OC (stereo not given),99.3 µM (inactive),> 37 µM (inactive),0.838 µM (active),> 78.7 µM (inactive),80.9 µM (inactive),7.5 µM (inactive),30.2 µM (inactive),17.7 µM (inactive),37.2 µM (inactive),29.8 µM (inactive),44.7 µM (inactive),47.3 µM (inactive),> 100 µM (inactive),76.6 µM (inactive),> 56.9 µM (inactive),34.3 µM (inactive),18.5 µM (inactive),11.2 µM (inactive),> 64.4 µM (inactive),70.5 µM (inactive)
Cc1ccc(S(=O)(=O)NC2=NS(=O)(=O)c3cc(C)c(Cl)cc3S2)cc1,> 100 µM (inactive),> 100 µM (inactive),> 100 µM (inactive),> 100 µM (inactive),24.4 µM (inactive),> 100 µM (inactive),> 100 µM (inactive),62.2 µM (inactive),> 100 µM (inactive),70.5 µM (inactive),> 100 µM (inactive),> 100 µM (inactive),> 100 µM (inactive),> 100 µM (inactive),82.6 µM (inactive),> 100 µM (inactive),76.7 µM (inactive),81.8 µM (inactive),> 100 µM (inactive),58.3 µM (inactive)
O=C(NCCN1CCCC1)c1cn2c(ccc3sc4ccccc4c(=O)c32)n1,16.3 µM (inactive),17 µM (inactive),17.1 µM (inactive),7.19 µM (inactive),15.2 µM (inactive),11.9 µM (inactive),19.2 µM (inactive),1.46 µM (inactive),13.3 µM (inactive),13.8 µM (inactive),17.6 µM (inactive),16.7 µM (inactive),12.5 µM (inactive),19.1 µM (inactive),6.56 µM (inactive),11.7 µM (inactive),10.8 µM (inactive),15.6 µM (inactive),2.16 µM (inactive),14.9 µM (inactive)
